# Results taken from US20180185423A1, “SEAWEED EXTRACTS WITH ANTI-CANCER ACTIVITY” (OCEANS LTD., priority 2015, published 2018).
# “And” between values parts separate entries of the source, which are not always exact repeats. Identical values can stand only once.
# Columns and labels:
# Test in all cases: CIMA assay (colorimetric indicator of metabolic activity), 72 h exposure
# A549 (lung carcinoma) = assay type: cell-based, human; conditions: A549, SDS 5% control; 0 = 100.0
# Method: (§1) Stock solutions of the extracts were prepared in dimethylsulfoxide (DMSO) at 10 mg/mL and stored in 200 μl aliquots at −20° C. until analysis. This preparation ensured that the DMSO delivered to cells in culture never exceeded 1%.
# (§2) Prepared extracts were assessed following chronic exposure conditions in which cells were seeded at 2×10^3 cells/well (96 wells plate) and incubated with test compounds for 72 h. Each compound was evaluated over a range of concentrations (0, 10, 25, 50 or 100 μg/ml). Cell proliferation was initially assessed using a standard colorimetric indicator of metabolic activity (CIMA) assay. In this assay, tetrazole reduction was evaluated as a measure of metabolic function that evaluates mitochondrial activity to determine the extent of cell proliferation within a culture. This assay is based on the reduction of yellow tetrazolium salt to purple formazan by mitochondrial reductases enzyme in viable cells, resulting in a color changed that confers a change in absorbance. […] From the results shown in Table 2 and FIGS. 4 and 5, the extracts were selected for additional fractionation and evaluated in the same manner.
# PC3 = assay type: cell-based; conditions: PC3, SDS 5% control; 0 = 100.0
# Method: as §1, §2
# [1] = system: CCD1079SK (fibroblast, noncancerous but proliferating); assay type: cell-based, human; conditions: SDS 5% control, 0 = 100.0, in % (unit assumed)
# Method: as §1
# (§3) Prepared extracts were assessed following chronic exposure conditions in which cells were seeded at 2×10^3 cells/well (96 wells plate) and incubated with test compounds for 72 h. Each compound was evaluated over a range of concentrations (0, 10, 25, 50 or 100 μg/ml). Cell proliferation was initially assessed using a standard colorimetric indicator of metabolic activity (CIMA) assay. In this assay, tetrazole reduction was evaluated as a measure of metabolic function that evaluates mitochondrial activity to determine the extent of cell proliferation within a culture. This assay is based on the reduction of yellow tetrazolium salt to purple formazan by mitochondrial reductases enzyme in viable cells, resulting in a color changed that confers a change in absorbance. Six human cell lines were selected for primary evaluation: U373 (glioblastoma-astrocytoma), A549 (lung carcinoma), THP-1 (acute monocytic leukemia), MCF7 (mammary gland adenocarcinoma), SKOV3 (ovarian adenocarcinoma), and CCD1079SK (fibroblast, noncancerous but proliferating). From the results shown in Table 2 and FIGS. 4 and 5, the extracts were selected for additional fractionation and evaluated in the same manner.
# (§4) Lead crude extracts were fractionated into five fractions by C-18 SPE column separation using 15 ml each of 5% methanol (fraction 1), 25% methanol (fraction 2), 50% methanol (fraction 3), 100% methanol (fraction 4) and […] (fraction 5). Extracts were fractionated and the resulting fractions were evaluated using CIMA assay. Bio-assay guided fractionation provided detailed information regarding the compound(s) responsible for specific bioactivity.
# [2] = system: MCF7 (mammary gland adenocarcinoma); assay type: cell-based, human; conditions: MCF7, SDS 5% control; 0 = 100.0; in % (unit assumed)
# Method: as §1, §3, §4
# [3] = system: SKOV3 (ovarian adenocarcinoma); assay type: cell-based, human; conditions: SKOV3, SDS 5% control; 0 = 100.0; in % (unit assumed)
# Method: as §1, §3, §4
# [4] = system: THP-1 (acute monocytic leukemia); assay type: cell-based, human; conditions: THP-1, SDS 5% control; 0 = 100.0; in % (unit assumed)
# Method: as §1, §3, §4
# [5] = system: U373 (glioblastoma-astrocytoma); assay type: cell-based, human; conditions: U373, SDS 5% control; 0 = 100.0; in % (unit assumed)
# Method: as §1, §3, §4
structure (smiles),measurement,setting,value
CCCCCCCCCCCCOS(=O)(=O)[O-].[Na+] [SDS],"AVG (viability, CIMA assay)",A549 (lung carcinoma),68.7%
same,"AVG (viability, CIMA assay)",PC3,77.3%
same,"AVG (viability, CIMA assay)",[1],9.4 and 11.3
same,"AVG (viability, CIMA assay)",[2],44.1 and 49.9
same,"AVG (viability, CIMA assay)",[3],78.9 and 56.5
same,"AVG (viability, CIMA assay)",[4],20.3 and 36.2
same,"AVG (viability, CIMA assay)",[5],48.4 and 58.1
